According to patent publication US20260309717A1, “PROXIMITY INDUCING SYSTEM AND USES THEREOF” (SORBONNE UNIVERSITE, priority 2022, published 2026):

What was measured:
Type in all cases: cell-based
[1] = target: T1, mCherry-caged^FIREtag / ^FIREmate-ECFP-Giantin (Halorhodospira halophila, UniProt P16113, A30V/C69G/D97P/F96I, form not given/G21E/G25R/K17N/M100R/M109L/Q41L/Q99S/S72T/T101G/V83A/Y94W/Y98T); assay: Recruitment of mCherry-caged^FIREtag to the Golgi, confocal microscopy, HeLa cells; details: 10 μM
T1 construct: mCherry-caged FIREtag (PYP 2-114 C69G cage) and FIREmate-ECFP-Giantin in HeLa cells
T1 sequence (P16113 1-114 A30V/C69G/D97P/F96I/G21E/G25R/K17N/M100R/M109L/Q41L/Q99S/S72T/T101G/V83A/Y94W/Y98T): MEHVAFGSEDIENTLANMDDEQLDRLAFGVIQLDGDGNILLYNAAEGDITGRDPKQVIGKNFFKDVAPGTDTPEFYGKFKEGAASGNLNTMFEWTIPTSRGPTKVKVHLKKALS
Description: FIGS. 11A-C illustrate the use of a caged proximity inducing system as described herein. FIG. 11A is a representation of the experimental design wherein HeLa cells co-expressing mCherry-caged^FIREtag and ^FIREmate-ECFP-Giantin were treated with 10 μM of match (i.e., HBR-2,5DM), and imaged by time-lapse confocal microscopy. FIG. 11B is a graph showing the temporal evolution of the FIRE signal detected upon addition of HBR-2,5DM at 0 min, either with ^FIREtag or with caged^FIREtag. Data represents the mean values±SD of 7 cells from n=3 independent experiments. FIG. 11C is a set of representative confocal micrographs of cells before (0 min) and after (9 min) addition of HBR-2,5DM (match1) (mCherry: ex/em 561/606-675 nm; FIRE: ex/em 488/508-570 nm; ECFP: ex/em 445/455-499 nm). […] Scale bars are 20 μm.
(§1) The confocal micrographs were acquired on a Zeiss LSM 980 Laser Scanning Microscope equipped with a plan apochromat 63x/1.4 NA oil immersion objective. […] The images were analyzed using Icy (2.4.0.0) and Fiji (Image J). In short, to track fluorescence signal in a specific organelle, a ROI (region of interest) was determined by masking the signal in the ECFP (Enhanced Cyan Fluorescent Protein) channel with the plug-in HK-means with the following parameters: intensity class equals 100, minimum object size (pixels or px) equals 500, maximum object size (px) equals 1500-3000. […]

[2] = target: T2, NLS-mCherry-^FIREmate / NES-ECFP-^FIREtag (Halorhodospira halophila, UniProt P16113, A30V/C69G/D97P/F96I, form not given/G21E/G25R/K17N/M100R/M109L/Q41L/Q99S/S72T/T101G/V83A/Y94W/Y98T); assay: Nuclear export of proteins (nucleocytoplasmic trafficking), confocal microscopy, HeLa cells; details: 10 μM, 4 min
T2 construct: NLS-mCherry-FIREmate and NES-ECFP-FIREtag in HeLa cells
T2 sequence (P16113 1-114 A30V/C69G/D97P/F96I/G21E/G25R/K17N/M100R/M109L/Q41L/Q99S/S72T/T101G/V83A/Y94W/Y98T): T1 sequence (P16113 1-114 A30V/C69G/D97P/F96I/G21E/G25R/K17N/M100R/M109L/Q41L/Q99S/S72T/T101G/V83A/Y94W/Y98T)
Description: FIGS. 13A-D illustrate the nuclear export of proteins mediated by the proximity inducing system described herein. FIG. 13A is a representation of the experimental design wherein HeLa cell co-expressing NLS-mCherry-FIR_^FIREmate and NES-ECFP-^FIREtag were treated with 10 μM of match (i.e., HBR-2,5DM) and imaged by time-lapse confocal microscopy. FIG. 13B is a graph showing the temporal evolution of the ratio nucleus-to-cytoplasm mCherry fluorescence intensities of n=5 cells from 2 independent experiments. FIG. 13C is a graph showing the temporal evolution of the FIRE signal detected upon addition of HBR-2,5DM at 0 min of n=5 cells from 2 independent experiments. […]
as §1

[3] = target: T3, FKBP-caged^FIREtag / FRB-^FIREmate (Halorhodospira halophila, UniProt P16113, A30V/C69G/D97P/F96I, form not given/G21E/G25R/K17N/M100R/M109L/Q41L/Q99S/S72T/T101G/V83A/Y94W/Y98T); assay: Flow cytometry of ternary assembly formation with caged^FIREtag, HEK293T cells
T3 construct: FKBP-caged FIREtag (PYP 2-114 C69G cage) and FRB-FIREmate co-expressed in HEK293T cells
T3 sequence (P16113 1-114 A30V/C69G/D97P/F96I/G21E/G25R/K17N/M100R/M109L/Q41L/Q99S/S72T/T101G/V83A/Y94W/Y98T): T1 sequence (P16113 1-114 A30V/C69G/D97P/F96I/G21E/G25R/K17N/M100R/M109L/Q41L/Q99S/S72T/T101G/V83A/Y94W/Y98T)
From the text: FIG. 10 is a graph illustrating the fluorogen-dependent interaction between caged ^FIREtag and ^FIREmate. […] Data represent the mean values±SD of 3 independent experiments.
Although, as indicated above, no self-complementation between ^FIREtag and ^FIREmate could be observed in the absence of fluorogen (see FIG. 3), a caged FIREt was designed to prevent any interaction with ^FIREmate in the absence of fluorogen, even at high expression levels. To cage ^FIREtag, the N-terminal domain 2-114 of Halorhodospira halophila photoactive yellow protein (PYP) C69G (corresponding to SEQ ID NO: 21) was fused to ^FIREtag. The intramolecular interaction between ^FIREtag and the N-terminal domain 2-114 of H. halophila PYP C69G induces the folding of the caged^FIREtag protein, thus preventing any intermolecular interaction of the caged^FIREtag with ^FIREmate. The fusion proteins FKBP-caged^FIREtag and FRB-^FIREmate were co-expressed in HEK293T cells. The cells were then treated with the fluorogens HBR-2,5DM at various concentrations (1, 5, 10, 25 or 50 μM as indicated), in the presence or absence of rapamycin.

Question: With `Cc1cc(/C=C2\SC(=S)NC2=O)c(C)cc1O` [HBR-2,5DM, (Z)-5-(4-hydroxy-2,5-dimethylbenzylidene)-2-thioxo-1,3-thiazolidin-4-one] as the molecule, how does the “kinetics of ternary assembly formation with caged^FIREtag, compared to ^FIREtag” value [1] read?
Answer: slower kinetics

Question: And the “recruitment of mCherry-caged^FIREtag to the Golgi” value ([1]; 9 min)?
Answer: efficient recruitment of mCherry-caged^FIREtag to the Golgi

Question: What about the “FIRE signal in the cytoplasm” value [2] of the same molecule?
Answer: strong cytoplasmic green fluorescence

Question: And the “cytoplasmic localization of the formed protein complex (nuclear export of NLS-mCherry-^FIREmate)” value [2]?
Answer: efficient cytoplasmic localization of the formed protein complex

Question: And the “formation of fluorescent ternary assembly with caged^FIREtag and ^FIREmate” value ([3]; 1, 5, 10, 25 or 50 μM, even in absence of rapamycin)?
Answer: could still form a fluorescent ternary assembly

Question: What about the “concentration required to reach full ternary assembly with caged^FIREtag” value ([3]; absence of rapamycin) of the same molecule?
Answer: higher concentrations of HBR-2,5DM were required to reach full ternary assembly in absence of rapamycin
